What was measured:
Experiment in all cases: biochemical
Conditions in all cases: read-out: % inhibition mean (Z'Lyte)
PTK6 (Brk) = PTK6 (Brk) (Homo sapiens, UniProt Q13882)
KSR2 = KSR2 (Homo sapiens, UniProt Q6VAB6)
YES1 = YES1 (Homo sapiens, UniProt P07947)
MAP4K2 (GCK) = MAP4K2 (GCK) (Homo sapiens, UniProt Q12851)
NEK1 = NEK1 (Homo sapiens, UniProt Q96PY6)
MERTK (cMER) = MERTK (cMER) (Homo sapiens, UniProt Q12866)
SRPK2 = SRPK2 (Homo sapiens, UniProt P78362)
EPHB4 = EPHB4 (Homo sapiens, UniProt P54760)
HIPK1 (Myak) = HIPK1 (Myak) (Homo sapiens, UniProt Q86Z02)
PIM2 = PIM2 (Homo sapiens, UniProt Q9P1W9)
Sequence of PIM2 (Q9P1W9 whole entry): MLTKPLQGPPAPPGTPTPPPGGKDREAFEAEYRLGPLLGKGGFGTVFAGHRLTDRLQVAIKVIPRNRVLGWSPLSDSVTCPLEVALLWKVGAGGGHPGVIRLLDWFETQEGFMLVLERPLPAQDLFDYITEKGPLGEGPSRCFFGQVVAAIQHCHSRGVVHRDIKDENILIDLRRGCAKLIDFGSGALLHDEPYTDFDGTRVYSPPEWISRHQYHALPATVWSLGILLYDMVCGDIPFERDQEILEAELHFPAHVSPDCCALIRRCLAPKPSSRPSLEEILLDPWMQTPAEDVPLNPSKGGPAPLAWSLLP

[1] = molecular target: EGFR (ErbB1) T790M C797S L858R (Homo sapiens, UniProt P00533, C797S/L858R/T790M)
[2] = molecular target: MAPK14 (p38 alpha) Direct (Homo sapiens, UniProt Q16539)
Sequence of MAPK14 (p38 alpha) Direct (Q16539 whole entry): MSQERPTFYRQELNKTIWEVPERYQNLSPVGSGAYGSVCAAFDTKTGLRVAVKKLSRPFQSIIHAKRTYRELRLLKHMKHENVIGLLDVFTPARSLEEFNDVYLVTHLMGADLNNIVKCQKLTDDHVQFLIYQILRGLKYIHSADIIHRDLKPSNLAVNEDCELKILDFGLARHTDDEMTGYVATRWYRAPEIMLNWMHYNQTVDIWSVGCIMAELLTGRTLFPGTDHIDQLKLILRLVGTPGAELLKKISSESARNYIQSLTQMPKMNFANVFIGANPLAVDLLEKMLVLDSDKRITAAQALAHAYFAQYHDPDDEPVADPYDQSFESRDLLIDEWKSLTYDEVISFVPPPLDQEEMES

CAMK4 (CaMKIV) = CAMK4 (CaMKIV) (Homo sapiens, UniProt Q16566)
MAP2K6 (MKK6) = MAP2K6 (MKK6) (Homo sapiens, UniProt P52564)
Sequence of MAP2K6 (MKK6) (P52564 whole entry): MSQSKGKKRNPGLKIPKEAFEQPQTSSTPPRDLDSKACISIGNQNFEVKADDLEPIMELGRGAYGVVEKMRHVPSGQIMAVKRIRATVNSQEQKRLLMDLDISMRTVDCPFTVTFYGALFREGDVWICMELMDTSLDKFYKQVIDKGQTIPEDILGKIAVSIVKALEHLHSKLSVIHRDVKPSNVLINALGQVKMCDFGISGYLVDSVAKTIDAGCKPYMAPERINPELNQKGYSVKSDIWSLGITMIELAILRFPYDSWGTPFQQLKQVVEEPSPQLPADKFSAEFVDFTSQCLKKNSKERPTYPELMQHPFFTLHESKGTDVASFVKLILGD

MAPK13 (p38 delta) = MAPK13 (p38 delta) (Homo sapiens, UniProt O15264)
EGFR (ErbB1) C797S = EGFR (ErbB1) C797S (Homo sapiens, UniProt P00533, C797S)
PRKCG (PKC gamma) = PRKCG (PKC gamma) (Homo sapiens, UniProt P05129)
SRMS (Srm) = SRMS (Srm) (Homo sapiens, UniProt Q9H3Y6)
CSNK1A1L = CSNK1A1L (Homo sapiens, UniProt Q8N752)
AMPK (A2/B1/G3) = AMPK (A2/B1/G3) (Homo sapiens, UniProt P54646)
CDC42 BPB (MRCKB) = CDC42 BPB (MRCKB) (Homo sapiens, UniProt Q9Y5S2)
Sequence of CDC42 BPB (MRCKB) (Q9Y5S2 whole entry): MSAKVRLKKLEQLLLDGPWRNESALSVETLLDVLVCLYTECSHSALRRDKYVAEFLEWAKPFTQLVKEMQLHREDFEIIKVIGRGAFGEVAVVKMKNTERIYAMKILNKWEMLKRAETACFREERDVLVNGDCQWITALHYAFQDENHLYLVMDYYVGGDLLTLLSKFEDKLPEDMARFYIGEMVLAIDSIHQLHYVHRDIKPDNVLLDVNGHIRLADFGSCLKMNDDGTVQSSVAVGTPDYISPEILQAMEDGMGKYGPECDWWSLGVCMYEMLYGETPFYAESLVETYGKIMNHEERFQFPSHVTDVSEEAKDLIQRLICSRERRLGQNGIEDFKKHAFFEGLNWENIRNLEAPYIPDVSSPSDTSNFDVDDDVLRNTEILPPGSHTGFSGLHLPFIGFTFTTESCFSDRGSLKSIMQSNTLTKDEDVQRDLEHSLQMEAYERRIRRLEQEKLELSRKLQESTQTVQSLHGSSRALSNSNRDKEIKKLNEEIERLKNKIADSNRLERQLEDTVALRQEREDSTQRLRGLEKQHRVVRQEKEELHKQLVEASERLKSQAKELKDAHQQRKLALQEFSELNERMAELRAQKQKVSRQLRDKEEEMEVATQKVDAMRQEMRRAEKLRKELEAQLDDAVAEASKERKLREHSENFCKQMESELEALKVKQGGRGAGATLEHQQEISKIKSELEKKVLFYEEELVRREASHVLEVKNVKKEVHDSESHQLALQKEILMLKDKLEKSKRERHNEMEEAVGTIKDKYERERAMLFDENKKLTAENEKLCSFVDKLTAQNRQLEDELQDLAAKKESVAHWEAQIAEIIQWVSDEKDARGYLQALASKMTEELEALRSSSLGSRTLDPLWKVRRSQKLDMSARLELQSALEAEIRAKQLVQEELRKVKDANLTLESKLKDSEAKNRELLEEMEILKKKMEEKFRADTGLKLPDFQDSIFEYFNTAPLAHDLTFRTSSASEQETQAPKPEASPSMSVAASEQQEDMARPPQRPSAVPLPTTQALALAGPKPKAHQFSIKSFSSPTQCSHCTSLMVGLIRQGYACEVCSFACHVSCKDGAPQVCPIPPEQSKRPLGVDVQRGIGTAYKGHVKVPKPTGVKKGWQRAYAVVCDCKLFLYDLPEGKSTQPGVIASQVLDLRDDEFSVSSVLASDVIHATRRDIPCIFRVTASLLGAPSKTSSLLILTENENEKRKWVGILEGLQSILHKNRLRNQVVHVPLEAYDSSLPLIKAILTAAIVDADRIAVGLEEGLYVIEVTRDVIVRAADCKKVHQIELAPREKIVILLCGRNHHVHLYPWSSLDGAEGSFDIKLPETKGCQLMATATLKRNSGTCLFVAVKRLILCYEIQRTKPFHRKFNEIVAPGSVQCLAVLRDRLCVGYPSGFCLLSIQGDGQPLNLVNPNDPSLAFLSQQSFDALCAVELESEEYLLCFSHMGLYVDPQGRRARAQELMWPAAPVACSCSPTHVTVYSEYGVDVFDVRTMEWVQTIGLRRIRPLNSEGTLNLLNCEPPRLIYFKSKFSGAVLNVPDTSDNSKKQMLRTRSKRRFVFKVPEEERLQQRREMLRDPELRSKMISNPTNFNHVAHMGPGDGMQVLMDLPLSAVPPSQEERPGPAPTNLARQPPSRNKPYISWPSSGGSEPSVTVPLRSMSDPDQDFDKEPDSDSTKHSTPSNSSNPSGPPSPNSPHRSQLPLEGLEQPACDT

MATK (HYL) = MATK (HYL) (Homo sapiens, UniProt P42679)
PRKCI (PKC iota) = PRKCI (PKC iota) (Homo sapiens, UniProt P41743)
FGFR3 = FGFR3 (Homo sapiens, UniProt P22607)
PRKCB1 (PKC beta I) = PRKCB1 (PKC beta I) (Homo sapiens, UniProt P05771)
PRKCB2 (PKC beta II) = PRKCB2 (PKC beta II) (Homo sapiens, UniProt P05771)
MARK3 = MARK3 (Homo sapiens, UniProt P27448)
Sequence of MARK3 (P27448 whole entry): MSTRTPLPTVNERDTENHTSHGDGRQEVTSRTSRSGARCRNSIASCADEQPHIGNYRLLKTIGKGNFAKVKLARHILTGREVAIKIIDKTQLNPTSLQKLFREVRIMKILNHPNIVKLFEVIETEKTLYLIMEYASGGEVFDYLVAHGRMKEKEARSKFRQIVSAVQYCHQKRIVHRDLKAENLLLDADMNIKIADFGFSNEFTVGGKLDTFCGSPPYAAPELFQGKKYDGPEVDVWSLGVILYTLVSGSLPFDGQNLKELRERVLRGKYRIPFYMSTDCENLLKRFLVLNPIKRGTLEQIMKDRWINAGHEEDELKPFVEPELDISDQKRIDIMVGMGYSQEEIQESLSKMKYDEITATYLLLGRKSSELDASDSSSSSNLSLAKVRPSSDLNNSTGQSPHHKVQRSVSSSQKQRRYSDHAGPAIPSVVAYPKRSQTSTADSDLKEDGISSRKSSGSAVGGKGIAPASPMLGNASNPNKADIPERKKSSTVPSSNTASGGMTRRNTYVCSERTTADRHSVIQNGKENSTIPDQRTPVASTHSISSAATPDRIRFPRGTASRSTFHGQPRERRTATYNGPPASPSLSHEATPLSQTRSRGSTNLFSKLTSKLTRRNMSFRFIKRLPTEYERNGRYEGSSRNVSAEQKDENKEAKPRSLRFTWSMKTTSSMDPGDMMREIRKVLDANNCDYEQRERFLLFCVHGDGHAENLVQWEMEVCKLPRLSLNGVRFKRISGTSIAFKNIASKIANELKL

PRKG1 = PRKG1 (Homo sapiens, UniProt Q13976)

Sequence of KSR2 (Q6VAB6 whole entry): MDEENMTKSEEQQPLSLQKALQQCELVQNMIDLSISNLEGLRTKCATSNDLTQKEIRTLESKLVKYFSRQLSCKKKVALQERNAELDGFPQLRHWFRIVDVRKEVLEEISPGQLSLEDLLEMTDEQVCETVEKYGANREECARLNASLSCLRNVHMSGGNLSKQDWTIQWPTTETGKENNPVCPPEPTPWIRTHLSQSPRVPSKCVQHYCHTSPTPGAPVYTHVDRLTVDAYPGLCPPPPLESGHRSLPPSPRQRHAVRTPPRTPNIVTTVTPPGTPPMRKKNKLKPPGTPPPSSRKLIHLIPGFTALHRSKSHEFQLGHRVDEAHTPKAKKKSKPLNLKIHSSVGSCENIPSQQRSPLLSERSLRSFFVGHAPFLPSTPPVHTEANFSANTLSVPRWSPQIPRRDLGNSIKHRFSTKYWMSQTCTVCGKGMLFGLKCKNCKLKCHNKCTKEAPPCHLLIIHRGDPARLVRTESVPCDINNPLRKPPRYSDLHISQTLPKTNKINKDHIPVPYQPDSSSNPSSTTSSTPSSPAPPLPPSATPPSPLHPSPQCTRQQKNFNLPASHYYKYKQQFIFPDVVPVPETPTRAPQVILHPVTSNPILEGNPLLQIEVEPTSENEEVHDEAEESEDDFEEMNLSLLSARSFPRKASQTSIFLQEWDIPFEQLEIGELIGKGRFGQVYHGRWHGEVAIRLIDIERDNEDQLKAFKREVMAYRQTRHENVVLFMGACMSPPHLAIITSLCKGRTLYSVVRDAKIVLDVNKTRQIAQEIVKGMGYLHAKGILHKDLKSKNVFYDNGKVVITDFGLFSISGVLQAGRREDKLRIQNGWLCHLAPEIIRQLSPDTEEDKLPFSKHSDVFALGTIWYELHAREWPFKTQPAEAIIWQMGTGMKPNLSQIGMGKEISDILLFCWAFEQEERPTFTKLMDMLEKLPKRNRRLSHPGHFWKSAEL
Sequence of PTK6 (Brk) (Q13882 whole entry): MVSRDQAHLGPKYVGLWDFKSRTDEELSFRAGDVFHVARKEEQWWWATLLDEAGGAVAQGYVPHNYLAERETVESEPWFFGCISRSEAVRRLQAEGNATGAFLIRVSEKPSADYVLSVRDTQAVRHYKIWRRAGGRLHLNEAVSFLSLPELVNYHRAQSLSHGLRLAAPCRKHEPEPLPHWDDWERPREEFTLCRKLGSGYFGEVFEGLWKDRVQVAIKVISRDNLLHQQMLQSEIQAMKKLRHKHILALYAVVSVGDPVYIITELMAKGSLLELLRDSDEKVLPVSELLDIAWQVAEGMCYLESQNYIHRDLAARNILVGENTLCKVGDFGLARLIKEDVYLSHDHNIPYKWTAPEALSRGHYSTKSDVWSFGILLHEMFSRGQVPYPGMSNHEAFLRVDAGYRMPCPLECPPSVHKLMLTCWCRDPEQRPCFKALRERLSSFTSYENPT

## COc1ccc2nc3cc(Cl)ccc3c(Nc3cc(CN4CCCC4)c(O)c(CN4CCCC4)c3)c2n1 [Pyronaridine, 4-[(7-Chloro-2-methoxybenzo[b][1,5]naphthyridin-10-yl)amino]-2,6-bis(1-pyrrolidinylmethyl)phenol phosphate (1:4)]
PTK6 (Brk)
  inhibition at 1 µM: -4%
KSR2
  inhibition at 1 µM: 2%
YES1
  inhibition at 1 µM: -6%
MAP4K2 (GCK)
  inhibition at 1 µM: 5%
NEK1
  inhibition at 1 µM: -1%
MERTK (cMER)
  inhibition at 1 µM: 2%
SRPK2
  inhibition at 1 µM: -4%
EPHB4
  inhibition at 1 µM: 7%
HIPK1 (Myak)
  inhibition at 1 µM: 1%
PIM2
  inhibition at 1 µM: -4%
[1]
  inhibition at 1 µM: 2%
[2]
  inhibition at 1 µM: 3%
CAMK4 (CaMKIV)
  inhibition at 1 µM: -5%
MAP2K6 (MKK6)
  inhibition at 1 µM: 3%
MAPK13 (p38 delta)
  inhibition at 1 µM: 5%
EGFR (ErbB1) C797S
  inhibition at 1 µM: -7%
PRKCG (PKC gamma)
  inhibition at 1 µM: -4%
SRMS (Srm)
  inhibition at 1 µM: 2%
CSNK1A1L
  inhibition at 1 µM: 3%
AMPK (A2/B1/G3)
  inhibition at 1 µM: 2%
CDC42 BPB (MRCKB)
  inhibition at 1 µM: -3%
MATK (HYL)
  inhibition at 1 µM: -2%
PRKCI (PKC iota)
  inhibition at 1 µM: -10%
FGFR3
  inhibition at 1 µM: -2%
PRKCB1 (PKC beta I)
  inhibition at 1 µM: 2%
PRKCB2 (PKC beta II)
  inhibition at 1 µM: 15%
MARK3
  inhibition at 1 µM: 2%
PRKG1
  inhibition at 1 µM: -6%

— publication doi:10.1101/2021.09.30.462449v1 (biorxiv, 2021)
